Measured values taken from patent EP1594520B1, “USE OF BRADYKININ-B2 RECEPTOR ANTAGONISTS FOR TREATING OSTEOARTHROSIS” (Sanofi-Aventis Deutschland GmbH, priority 2003, dated 2006).

Tested on: SW1353 Zellen
Assay: MMP-3 release from IL-1 stimulated SW1353 chondrosarcoma cells (MMP3 ELISA of the culture supernatant)
Format: cell-based
Procedure: Für die Analyse der krankheitsmodifizierenden Wirkung von HOE140 in einem Knorpelrelevanten Zellkulturmodel wurde die MMP3 Expression in der Chondrosarcom Zellline SW1353 (ATCC: HTB 94) analysiert. Für die Versuche wurden SW1353 Zellen unter Standard Bedingungen (37°C, 5% CO2) in DMEM-Glutamax mit 10% Fötalem Kälberserum (FKS) in Plastikkulturflaschen kultiviert. Nach ab-trypsinieren der Zellen wurden 50.000 Zellen je well einer 96-well Flachboden Platte in Medium ohne FKS ausgesät und mit der Verbindung HOE140 im Inkubator vorinkubiert. […] Nach 24 Stunden Inkubation unter Standardbedingungen wurde der Zellkulturüberstand abgenommen, 5 Minuten zentrifugiert und bei -20 °C bis zur weiteren Analyse eingefroren. Die Analyse der MMP3 Expression in den Zellkulturüberständen erfolgt dann mittels eines kommerziellen MMP3 ELISA Testsystems (Amersham) nach Angaben des Herstellers. Parallel dazu wurde mit den verbleibenden Zellen ein WST-Zytotoxizitätstest durchgeführt. Dazu wurde das kommerzielle Testsystem der Firma Roche verwendet und die Messung nach Angaben des Herstellerprotokolls durchgeführt.
Die nachfolgende Tabelle 1 zeigt die Ergebnisse. Bradykinin erhöht die MMP3 Freisetzung um mehr als 30%. […] Tabelle 1 MMP-3 Freisetzung aus SW-Zellen

Substance	Erhöhung der MMP3 Freisetzung (Bradykinin added to IL1-stimulated SW cells)	MMP-3 Freisetzung MW (OD450nm) (IL1α + Bradykinin (0,1 µM), no antagonist)	Relativwerte bezogen auf Ausgangswert (IL1α + Bradykinin (0,1 µM), no antagonist, IL1α (0,05 ng/ml) alone = 100)	MMP-3 Freisetzung MW (OD450nm) (IL1α + Bradykinin (0,1 µM) + 0,1 µM HOE140)	Relativwerte bezogen auf Ausgangswert (IL1α + Bradykinin (0,1 µM) + 0,1 µM HOE140, IL1α alone = 100)	MMP-3 Freisetzung MW (OD450nm) (IL1α + Bradykinin (0,1 µM) + 0,05 µM HOE140)	MMP-3 Freisetzung MW (OD450nm) (IL1α + Bradykinin (0,1 µM) + 0,5 µM HOE140)	Relativwerte bezogen auf Ausgangswert (IL1α + Bradykinin (0,1 µM) + 0,05 µM HOE140, IL1α alone = 100)	Relativwerte bezogen auf Ausgangswert (IL1α + Bradykinin (0,1 µM) + 0,5 µM HOE140, IL1α alone = 100)	MMP-3 Freisetzung MW (OD450nm) (IL1α + Bradykinin (0,1 µM) + 1 µM HOE140)	Relativwerte bezogen auf Ausgangswert (IL1α + Bradykinin (0,1 µM) + 1 µM HOE140, IL1α alone = 100)	Hemmung der durch Bradykinin erhöhten Freisetzung von MMP 3 (IL1α + Bradykinin (0,1 µM), 0,05 to 1 µM HOE140)
Bradykinin: natürlich vorkommendes Nonapeptid, das einige pharmakologische Effekte aufweist, die zu Entzündungen und Schmerzen führen (RPPGFSPFR; Bradykinin; UniProt P01042 381-389, looked up) [reference compound]	> 30%	433 OD450nm	132,0	–	–	–	–	–	–	–	–	–
D-Arginyl-L-arginyl-L-prolyl-L-prolylglycyl-3-(2-thienyl)-L-alanyl-L-seryl-(3R)-1,2,3,4-tetrahydro-3-isochinolincarbonyl-(2S,3aS,7aS)-octahydro-1H-indol-2-carbonyl-L-arginin [HOE140]	–	–	–	371 OD450nm	113,1	458 OD450nm	309 OD450nm	139,6	94,2	306 OD450nm	93,3	dosis-abhängig gehemmt
